The values that follow come from US12059422B2 (MEI Pharma, Inc., priority 2011, dated 2024).

Type in all cases: biochemical
The target in one assay is T1, PI3K alpha (Homo sapiens, UniProt P42336).
T1 construct: purchased Invitrogen Corp., Carlsbad, CA, USA
The assay can be described thus: Luciferase-based luminescence assay (KinaseGlo), PI3K alpha enzymatic activity. The following applies: inhibition of enzymatic activity, 25 μM ATP, read-out: IC50 p110α. As for the experimental part: (§1) PI3K catalyzes the conversion of phosphatidylinositol-4,5-bisphosphate (PIP2) and ATP to phosphatidylinositol-3,4,5-trisphosphate (PIP3) and ADP. For all assays, the reaction buffer comprised 50 mM HEPES, pH 7.5, 3 mM MgCl2, 1 mM EGTA, 100 mM NaCl, 0.03% CHAPS and 2 mM DTT. Compounds for testing were dissolved and serially diluted in 100% DMSO (total of 10 concentrations), then diluted 1:25 in reaction buffer.
(§2) PI3K alpha and PI3K delta enzymatic activity was determined by measuring the amount of ATP consumed following the kinase reaction using a luciferase-based luminescence assay (KinaseGlo®, Promega Corp., Madison, WI, USA). PI3K enzyme solutions were prepared by diluting PI3K alpha (Invitrogen Corp., Carlsbad, CA, USA) or PI3K delta (Millipore, Billerica, MA, USA) in reaction buffer, to 4× the final assay concentration (final concentrations of enzymes were 1.65 nM and 6.86 nM for PI3K alpha and PI3K delta, respectively). A substrate solution was prepared by mixing PIP2 and ATP in reaction buffer at 2× the final assay concentration (final concentrations were 50 μM and 25 μM for PIP2 and ATP respectively). 2.5 μL each of the compound and kinase mixtures were added to individual wells of white low volume 384-well assay plates and mixed by shaking. The reactions were started by adding 5 μL of substrate mixture per well and shaking. The assay plates were covered and reactions were allowed to proceed for 1 hour (PI3K alpha) or 2 hours (PI3K delta), after which 10 μL of Kinase Glo® reagent was added. The plates were briefly centrifuged and incubated for 10 minutes, after which luminescence was measured using a FlexStation plate reader (Molecular Devices, Sunnyvale, CA, USA). IC50 values were determined by curve fitting using Graphpad Prism software (Graphpad Software, La Jolla, CA, USA).
Background: Kinase-Glo reads ATP consumption through a luciferase reaction.

Another assay addresses T2, PI3K delta (Homo sapiens, UniProt O00329).
T2 construct: purchased Millipore, Billerica, MA, USA
The assay can be described thus: Luciferase-based luminescence assay (KinaseGlo), PI3K delta enzymatic activity. The following applies: for IC50: inhibition of enzymatic activity, KinaseGlo, 25 μM ATP, read-out: IC50 p110δ; for α/δ ratio: ratio of enzymatic IC50 against PI3Kα over IC50 against PI3Kδ; for β/δ ratio / γ/δ ratio: ratio of enzymatic IC50 values, Table 1. As for the experimental part: as §1, §2

The next assay addresses T3, PI3K beta (Homo sapiens, UniProt P42338).
T3 construct: purchased Millipore, Billerica, MA, USA
The assay can be described thus: Luciferase-based luminescence assay (ADP Glo), PI3K beta enzymatic activity. The following applies: for IC50: inhibition of enzymatic activity, ADP Glo, 25 μM ATP, read-out: IC50 p110β; for α/β ratio: ratio of enzymatic IC50 values, Table 1. As for the experimental part: as §1
(§3) PI3K beta and gamma enzymatic activity was determined by measuring the amount of ADP produced following the kinase reaction using a luciferase-based luminescence assay (ADP Glo®, Promega Corp., Madison, WI, USA). PI3K enzyme solutions were prepared by diluting PI3K beta (Millipore, Billerica, MA, USA) or PI3K gamma (Invitrogen Corp., Carlsbad, CA, USA) in reaction buffer, to 4× the final assay concentration (final concentrations of enzymes were 4.8 nM and 7.6 nM for PI3K beta and PI3K gamma respectively). A substrate solution was prepared by mixing PIP2 and ATP in reaction buffer at 2× the final assay concentration (final concentrations were 50 μM and 25 μM for PIP2 and ATP respectively). 2.5 μL each of the compound and kinase mixtures were added to individual wells of white low volume 384-well assay plates and mixed by shaking. The reactions were started by adding 5 μL of substrate mixture per well and shaking. The assay plates were covered and reactions were allowed to proceed for 1 hour. Then, 5 μL of reaction mix was transferred to another white low volume 384-well plate, and 5 μL of ADP-Glo™ reagent was added. The plates were briefly centrifuged and incubated for 40 minutes, after which 10 μL of kinase detection buffer was added. The plates then were centrifuged briefly, shaken slowly and equilibrated at room temperature for 30 minutes, after which luminescence was measured using a FlexStation plate reader (Molecular Devices, Sunnyvale, CA, USA). IC50 values were determined by curve fitting using Graphpad Prism software (Graphpad Software, La Jolla, CA, USA).
A general note: ADP-Glo first removes unused ATP, then detects ADP through luciferase.

The target in the next assay is T4, PI3K gamma (Homo sapiens, UniProt P48736).
T4 construct: purchased Invitrogen Corp., Carlsbad, CA, USA
The assay can be described thus: Luciferase-based luminescence assay (ADP Glo), PI3K gamma enzymatic activity. The following applies: inhibition of enzymatic activity, 25 μM ATP, read-out: IC50 p110γ. As for the experimental part:
as §1, §3

For the next assay, the target named is mTOR (Homo sapiens, UniProt P42345). The assay can be described thus: mTOR inhibition (Table 1). The following applies: Table 1, no method described.

T4 sequence (P48736 whole entry, species assumed): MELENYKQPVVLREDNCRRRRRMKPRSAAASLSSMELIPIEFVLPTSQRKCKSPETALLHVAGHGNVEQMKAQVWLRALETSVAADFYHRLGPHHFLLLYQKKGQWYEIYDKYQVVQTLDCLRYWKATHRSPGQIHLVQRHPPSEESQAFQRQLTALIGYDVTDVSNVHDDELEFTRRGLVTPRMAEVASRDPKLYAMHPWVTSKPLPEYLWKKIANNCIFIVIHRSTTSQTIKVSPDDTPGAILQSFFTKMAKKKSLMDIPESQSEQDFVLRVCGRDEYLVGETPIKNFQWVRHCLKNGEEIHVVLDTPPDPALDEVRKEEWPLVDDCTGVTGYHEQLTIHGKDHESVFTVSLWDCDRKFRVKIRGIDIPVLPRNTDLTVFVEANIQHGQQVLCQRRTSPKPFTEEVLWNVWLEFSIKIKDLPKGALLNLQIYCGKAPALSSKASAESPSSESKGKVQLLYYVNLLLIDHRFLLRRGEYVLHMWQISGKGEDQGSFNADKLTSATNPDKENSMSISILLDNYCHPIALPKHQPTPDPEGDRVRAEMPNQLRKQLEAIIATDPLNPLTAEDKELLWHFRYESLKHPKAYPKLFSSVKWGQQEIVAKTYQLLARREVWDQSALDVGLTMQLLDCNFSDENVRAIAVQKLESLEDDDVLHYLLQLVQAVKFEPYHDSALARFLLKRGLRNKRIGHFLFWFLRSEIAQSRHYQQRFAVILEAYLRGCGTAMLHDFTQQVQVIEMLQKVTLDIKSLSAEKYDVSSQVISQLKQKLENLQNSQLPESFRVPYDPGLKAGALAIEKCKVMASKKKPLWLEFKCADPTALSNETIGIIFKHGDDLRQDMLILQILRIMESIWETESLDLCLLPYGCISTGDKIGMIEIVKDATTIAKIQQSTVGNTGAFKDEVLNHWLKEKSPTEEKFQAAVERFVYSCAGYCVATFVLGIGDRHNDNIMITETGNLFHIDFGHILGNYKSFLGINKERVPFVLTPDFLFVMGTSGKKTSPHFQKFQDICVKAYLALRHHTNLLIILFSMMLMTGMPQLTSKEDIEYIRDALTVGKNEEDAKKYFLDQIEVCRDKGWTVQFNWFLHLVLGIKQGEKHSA
T1 sequence (P42336 whole entry, species assumed): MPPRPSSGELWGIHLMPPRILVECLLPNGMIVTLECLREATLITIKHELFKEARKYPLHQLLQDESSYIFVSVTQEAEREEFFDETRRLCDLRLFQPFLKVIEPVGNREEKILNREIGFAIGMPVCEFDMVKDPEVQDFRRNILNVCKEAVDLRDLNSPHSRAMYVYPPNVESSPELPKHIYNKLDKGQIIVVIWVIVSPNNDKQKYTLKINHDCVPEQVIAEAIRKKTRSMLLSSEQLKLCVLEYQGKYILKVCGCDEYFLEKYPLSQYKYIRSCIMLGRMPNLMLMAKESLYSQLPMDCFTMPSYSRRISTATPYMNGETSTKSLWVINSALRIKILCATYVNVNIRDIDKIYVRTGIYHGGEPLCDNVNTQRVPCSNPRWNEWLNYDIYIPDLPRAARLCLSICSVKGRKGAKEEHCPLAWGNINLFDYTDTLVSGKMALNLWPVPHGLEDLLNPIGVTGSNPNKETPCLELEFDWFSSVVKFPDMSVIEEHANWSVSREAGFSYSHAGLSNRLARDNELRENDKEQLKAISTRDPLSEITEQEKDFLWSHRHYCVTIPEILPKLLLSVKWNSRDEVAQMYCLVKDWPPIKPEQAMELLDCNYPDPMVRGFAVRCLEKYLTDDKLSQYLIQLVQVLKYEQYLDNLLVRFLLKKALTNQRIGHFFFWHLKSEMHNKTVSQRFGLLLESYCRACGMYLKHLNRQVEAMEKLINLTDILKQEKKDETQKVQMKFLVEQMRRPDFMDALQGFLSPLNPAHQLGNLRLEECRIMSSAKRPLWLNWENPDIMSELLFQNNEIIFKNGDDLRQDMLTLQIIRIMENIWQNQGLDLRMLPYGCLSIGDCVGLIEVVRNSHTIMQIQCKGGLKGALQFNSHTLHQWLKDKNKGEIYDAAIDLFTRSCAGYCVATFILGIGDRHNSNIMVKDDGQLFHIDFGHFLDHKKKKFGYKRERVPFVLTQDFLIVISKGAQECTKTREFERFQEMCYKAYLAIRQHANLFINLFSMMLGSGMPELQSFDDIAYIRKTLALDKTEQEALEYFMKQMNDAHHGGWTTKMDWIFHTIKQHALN
T1 sequence (P27986 whole entry partner, species assumed): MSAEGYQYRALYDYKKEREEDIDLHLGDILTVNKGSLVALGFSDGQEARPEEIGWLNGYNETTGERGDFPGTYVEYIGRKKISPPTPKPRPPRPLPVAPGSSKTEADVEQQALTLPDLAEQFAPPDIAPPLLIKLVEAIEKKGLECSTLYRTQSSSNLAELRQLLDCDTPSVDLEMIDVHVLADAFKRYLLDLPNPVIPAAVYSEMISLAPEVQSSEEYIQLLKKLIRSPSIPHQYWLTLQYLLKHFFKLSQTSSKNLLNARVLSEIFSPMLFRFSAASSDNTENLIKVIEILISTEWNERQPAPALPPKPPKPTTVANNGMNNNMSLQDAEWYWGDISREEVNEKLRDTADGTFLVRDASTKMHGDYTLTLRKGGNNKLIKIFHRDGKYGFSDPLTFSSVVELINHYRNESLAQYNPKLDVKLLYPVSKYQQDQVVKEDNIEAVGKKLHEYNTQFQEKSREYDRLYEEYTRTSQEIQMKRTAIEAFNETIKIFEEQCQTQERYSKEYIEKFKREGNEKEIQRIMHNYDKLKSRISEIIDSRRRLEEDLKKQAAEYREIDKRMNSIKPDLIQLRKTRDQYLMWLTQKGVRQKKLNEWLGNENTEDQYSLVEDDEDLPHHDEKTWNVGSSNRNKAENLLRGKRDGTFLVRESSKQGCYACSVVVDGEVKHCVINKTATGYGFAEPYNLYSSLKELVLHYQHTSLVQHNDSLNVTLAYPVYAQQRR
T2 sequence (O00329 whole entry, species assumed): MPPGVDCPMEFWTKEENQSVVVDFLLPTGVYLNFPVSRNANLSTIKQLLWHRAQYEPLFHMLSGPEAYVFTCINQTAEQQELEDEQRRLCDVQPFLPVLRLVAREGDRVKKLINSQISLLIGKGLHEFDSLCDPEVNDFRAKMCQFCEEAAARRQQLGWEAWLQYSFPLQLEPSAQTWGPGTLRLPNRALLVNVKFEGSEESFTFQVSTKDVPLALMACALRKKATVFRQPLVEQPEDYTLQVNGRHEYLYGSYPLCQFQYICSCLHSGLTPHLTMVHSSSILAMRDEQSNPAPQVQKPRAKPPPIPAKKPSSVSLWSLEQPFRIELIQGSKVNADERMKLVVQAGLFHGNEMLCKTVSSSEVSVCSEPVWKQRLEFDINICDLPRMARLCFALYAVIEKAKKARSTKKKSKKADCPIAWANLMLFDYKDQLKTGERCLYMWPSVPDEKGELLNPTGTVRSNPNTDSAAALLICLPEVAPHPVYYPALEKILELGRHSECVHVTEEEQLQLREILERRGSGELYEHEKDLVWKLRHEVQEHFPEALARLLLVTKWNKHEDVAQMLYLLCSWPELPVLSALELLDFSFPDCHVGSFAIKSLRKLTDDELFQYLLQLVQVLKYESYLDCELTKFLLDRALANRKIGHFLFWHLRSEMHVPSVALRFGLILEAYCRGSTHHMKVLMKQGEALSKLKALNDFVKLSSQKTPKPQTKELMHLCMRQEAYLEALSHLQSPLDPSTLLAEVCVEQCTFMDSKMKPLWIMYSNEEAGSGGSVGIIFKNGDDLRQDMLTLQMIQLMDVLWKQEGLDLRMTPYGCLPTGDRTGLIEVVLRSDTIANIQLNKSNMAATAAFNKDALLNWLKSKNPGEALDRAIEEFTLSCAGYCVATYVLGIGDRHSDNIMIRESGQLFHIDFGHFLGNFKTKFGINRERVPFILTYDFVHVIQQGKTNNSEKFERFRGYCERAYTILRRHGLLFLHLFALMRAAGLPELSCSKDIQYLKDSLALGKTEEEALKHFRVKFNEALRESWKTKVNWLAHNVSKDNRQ
T2 sequence (P27986 whole entry partner, species assumed): as the sequence (P27986 whole entry partner, species assumed) above
T3 sequence (P42338 whole entry, species assumed): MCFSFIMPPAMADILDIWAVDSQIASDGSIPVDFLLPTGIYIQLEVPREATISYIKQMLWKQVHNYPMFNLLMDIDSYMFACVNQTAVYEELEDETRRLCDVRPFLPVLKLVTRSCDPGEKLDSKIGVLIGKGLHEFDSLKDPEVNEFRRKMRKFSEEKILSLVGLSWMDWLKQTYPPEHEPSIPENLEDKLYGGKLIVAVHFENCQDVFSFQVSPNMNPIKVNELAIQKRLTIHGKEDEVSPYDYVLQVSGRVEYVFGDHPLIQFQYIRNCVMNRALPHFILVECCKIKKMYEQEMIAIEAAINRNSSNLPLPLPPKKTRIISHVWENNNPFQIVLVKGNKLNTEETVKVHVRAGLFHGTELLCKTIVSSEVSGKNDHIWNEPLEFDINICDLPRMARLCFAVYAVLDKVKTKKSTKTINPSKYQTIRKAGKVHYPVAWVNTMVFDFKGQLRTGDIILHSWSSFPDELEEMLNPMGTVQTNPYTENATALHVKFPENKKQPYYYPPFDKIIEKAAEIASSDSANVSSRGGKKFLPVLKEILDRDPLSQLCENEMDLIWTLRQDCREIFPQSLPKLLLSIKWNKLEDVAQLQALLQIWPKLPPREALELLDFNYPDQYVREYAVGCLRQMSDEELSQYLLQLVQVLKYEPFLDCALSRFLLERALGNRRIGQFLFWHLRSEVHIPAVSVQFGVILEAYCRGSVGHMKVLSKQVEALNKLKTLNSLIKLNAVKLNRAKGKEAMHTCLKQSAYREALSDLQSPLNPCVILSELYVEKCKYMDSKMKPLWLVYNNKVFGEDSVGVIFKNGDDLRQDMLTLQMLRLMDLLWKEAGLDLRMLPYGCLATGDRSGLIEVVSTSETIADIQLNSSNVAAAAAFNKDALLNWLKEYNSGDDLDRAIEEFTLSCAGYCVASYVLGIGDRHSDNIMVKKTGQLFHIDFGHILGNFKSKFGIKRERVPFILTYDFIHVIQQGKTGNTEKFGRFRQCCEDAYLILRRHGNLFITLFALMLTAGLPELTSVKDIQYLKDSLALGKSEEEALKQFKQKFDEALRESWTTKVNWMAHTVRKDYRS
T3 sequence (P27986 whole entry partner, species assumed): as the sequence (P27986 whole entry partner, species assumed) above

Broadly, the IC50 is the concentration that inhibits the measured activity by half. `CC(Nc1nc(N2CCOCC2)nc(-n2c(C(F)F)nc3ccccc32)n1)c1ccccc1` (centres unmarked) [Compound A1, 4-(2-(difluoromethyl)-1H-benzo[d]imidazol-1-yl)-6-morpholino-N-(1-phenylethyl)-1,3,5-triazin-2-amine]: the IC50 at PI3K alpha is greater than 0.5 µM. Moreover, at PI3K delta, the IC50 is no more than 0.1 µM and the α/δ ratio entry was “C’”.
As to `C[C@H](Nc1nc(N2CCOCC2)nc(-n2c(C(F)F)nc3ccccc32)n1)c1ccccc1` [Compound A2, (S)-4-(2-(difluoromethyl)-1H-benzo[d]imidazol-1-yl)-6-morpholino-N-(1-phenylethyl)-1,3,5-triazin-2-amine], the IC50 on PI3K alpha was greater than 0.5 µM. In addition, at PI3K beta, the IC50 is greater than 0.5 µM and the α/β ratio entry is “D’”. Besides, the IC50 at PI3K gamma was greater than 0.5 µM. On PI3K delta, the IC50 was in the range of 0.2 to 0.5 µM, the α/δ ratio entry is “D’”, the β/δ ratio result is “A’” and the γ/δ ratio entry is listed as “D’”. The IC50 on mTOR was greater than 0.5 µM.
On to `C[C@@H](Nc1nc(N2CCOCC2)nc(-n2c(C(F)F)nc3ccccc32)n1)c1ccccc1` [Compound A3, (R)-4-(2-(difluoromethyl)-1H-benzo[d]imidazol-1-yl)-6-morpholino-N-(1-phenylethyl)-1,3,5-triazin-2-amine], for which the IC50 on PI3K alpha was greater than 0.5 µM. For the same compound, at PI3K delta, the IC50 was greater than 0.5 µM and the α/δ ratio result is reported as “D’”.
For `CC[C@H](Nc1nc(N2CCOCC2)nc(-n2c(C(F)F)nc3ccccc32)n1)c1ccccc1` [Compound A5, (S)-4-(2-(difluoromethyl)-1H-benzo[d]imidazol-1-yl)-6-morpholino-N-(1-phenylpropyl)-1,3,5-triazin-2-amine], the IC50 was greater than 0.5 µM on PI3K alpha; greater than 0.5 µM at PI3K beta; 0.1 to 0.2 µM on PI3K gamma; 0.2 to 0.5 µM on PI3K delta; greater than 0.5 µM at mTOR. Further, the α/β ratio entry on PI3K beta is “D’”. Moreover, the α/δ ratio result at PI3K delta is reported as “C’”. The β/δ ratio result on PI3K delta is “C’”. Moreover, the γ/δ ratio entry on PI3K delta is “D’”.
On to `CC[C@@H](Nc1nc(N2CCOCC2)nc(-n2c(C(F)F)nc3ccccc32)n1)c1ccccc1` [Compound A6, (R)-4-(2-(difluoromethyl)-1H-benzo[d]imidazol-1-yl)-6-morpholino-N-(1-phenylpropyl)-1,3,5-triazin-2-amine], for which, at PI3K alpha, the IC50 was greater than 0.5 µM. Moreover, at PI3K delta, the IC50 was greater than 0.5 µM and the α/δ ratio entry is “B’”.
For the compound `CC(C)(Nc1nc(N2CCOCC2)nc(-n2c(C(F)F)nc3ccccc32)n1)c1ccccc1` [Compound A7, 4-(2-(difluoromethyl)-1H-benzo[d]imidazol-1-yl)-6-morpholino-N-(2-phenylpropan-2-yl)-1,3,5-triazin-2-amine], on PI3K alpha, the IC50 was greater than 0.5 µM. At PI3K beta, the IC50 was greater than 0.5 µM and the α/β ratio entry is recorded as “D’”. Further, the IC50 on PI3K gamma fell in the range of 0.2 to 0.5 µM. For the same compound, on PI3K delta, the IC50 lay in the range of 0.1 to 0.2 µM, the α/δ ratio entry was “C’”, the β/δ ratio entry is “A’” and the γ/δ ratio result is on record as “D’”. In addition, the IC50 against mTOR was greater than 0.5 µM.
For the compound `CC(C)(Nc1nc(N2CCOCC2)nc(-n2c(C(F)F)nc3ccccc32)n1)c1ccc(Cl)cc1` [Compound A8, N-(2-(4-chlorophenyl)propan-2-yl)-4-(2-(difluoromethyl)-1H-benzo[d]imidazol-1-yl)-6-morpholino-1,3,5-triazin-2-amine], the IC50 on PI3K alpha and at PI3K delta was greater than 0.5 µM each time. At PI3K delta, the α/δ ratio result is on record as “C’”.
In the case of `COc1ccc(C(C)(C)Nc2nc(N3CCOCC3)nc(-n3c(C(F)F)nc4ccccc43)n2)cc1` [Compound A9, 4-(2-(difluoromethyl)-1H-benzo[d]imidazol-1-yl)-N-(2-(4-methoxyphenyl)propan-2-yl)-6-morpholino-1,3,5-triazin-2-amine], the IC50 at PI3K alpha and at PI3K delta was greater than 0.5 µM throughout. Moreover, the α/δ ratio entry on PI3K delta is listed as “D’”.
As to `COC(=O)[C@H](Nc1nc(N2CCOCC2)nc(-n2c(C(F)F)nc3ccccc32)n1)c1ccccc1` [Compound A11, (R)-methyl 2-((4-(2-(difluoromethyl)-1H-benzo[d]imidazol-1-yl)-6-morpholino-1,3,5-triazin-2-yl)amino)-2-phenylacetate], the IC50 is 0.2 to 0.5 µM on PI3K alpha and no more than 0.1 µM at PI3K delta. The α/δ ratio result at PI3K delta is “D’”.
With `COC(=O)[C@@H](Nc1nc(N2CCOCC2)nc(-n2c(C(F)F)nc3ccccc32)n1)c1ccccc1` [Compound A12, (S)-methyl 2-((4-(2-(difluoromethyl)-1H-benzo[d]imidazol-1-yl)-6-morpholino-1,3,5-triazin-2-yl)amino)-2-phenylacetate], on PI3K alpha, the IC50 is greater than 0.5 µM. Besides, at PI3K delta, the IC50 was in the range of 0.2 to 0.5 µM and the α/δ ratio entry is reported as “D’”.
In the case of `CC(C)(Nc1nc(N2CCOCC2)nc(-n2c(C(F)F)nc3ccccc32)n1)c1ccc2ccccc2c1` [Compound A13, 4-(2-(difluoromethyl)-1H-benzo[d]imidazol-1-yl)-6-morpholino-N-(2-(naphthalen-2-yl)propan-2-yl)-1,3,5-triazin-2-amine], the IC50 at PI3K alpha is greater than 0.5 µM. For the same compound, at PI3K delta, the concentration for half-maximal inhibition (IC50) was greater than 0.5 µM and the α/δ ratio result is “A’”.
In the case of `CC(C)(Cc1ccccc1Br)Nc1nc(N2CCOCC2)nc(-n2c(C(F)F)nc3ccccc32)n1` [Compound A17, 4-(2-(difluoromethyl)-1H-benzo[d]imidazol-1-yl)-N-(1-(2-bromophenyl)-2-methylpropan-2-yl)-6-morpholino-1,3,5-triazin-2-amine], the IC50 on PI3K alpha and against mTOR was greater than 0.5 µM in each case.
In the case of `CC(C)(Cc1cccc(Cl)c1)Nc1nc(N2CCOCC2)nc(-n2c(C(F)F)nc3ccccc32)n1` [Compound A20, N-(1-(3-chlorophenyl)-2-methylpropan-2-yl)-4-(2-(difluoromethyl)-1H-benzo[d]imidazol-1-yl)-6-morpholino-1,3,5-triazin-2-amine], at PI3K alpha, the 50% inhibitory concentration (IC50) was greater than 0.5 µM. Besides, at PI3K beta, the IC50 was in the range of 0.1 to 0.2 µM and the α/β ratio entry is “A’”. At PI3K gamma, the IC50 was greater than 0.5 µM. In addition, at PI3K delta, the IC50 was 0.1 to 0.2 µM, the α/δ ratio entry is on record as “A’”, the β/δ ratio entry is given as “D’” and the γ/δ ratio result is reported as “C’”. In addition, the IC50 on mTOR was greater than 0.5 µM.
Turning to `CC(C)(Cc1ccc2ccccc2c1)Nc1nc(N2CCOCC2)nc(-n2c(C(F)F)nc3ccccc32)n1` [Compound A26, 4-(2-(difluoromethyl)-1H-benzo[d]imidazol-1-yl)-N-(2-methyl-1-(naphthalen-2-yl)propan-2-yl)-6-morpholino-1,3,5-triazin-2-amine], the IC50 on PI3K alpha fell in the range of 0.2 to 0.5 µM. Moreover, at PI3K beta, the concentration for half-maximal inhibition (IC50) is no more than 0.1 µM and the α/β ratio entry was “C’”. The IC50 on PI3K gamma lay within 0.1 to 0.2 µM. For the same compound, on PI3K delta, the IC50 lay in the range of 0.1 to 0.2 µM, the α/δ ratio result is on record as “D’”, the β/δ ratio result is listed as “D’” and the γ/δ ratio entry is “D’”. Besides, the IC50 against mTOR is greater than 0.5 µM.
Regarding `FC(F)c1nc2ccccc2n1-c1nc(NCc2ccccc2)nc(N2CCOCC2)n1` [Ref 1, N-benzyl-4-(2-(difluoromethyl)-1H-benzo[d]imidazol-1-yl)-6-morpholino-1,3,5-triazin-2-amine, reference compound], the IC50 on PI3K alpha fell in the range of 0.1 to 0.2 µM. Also, at PI3K delta, the IC50 fell in the range of 0.1 to 0.2 µM and the α/δ ratio result was “D’”.
